In patent publication US12544381B2, “Topical formulation for JAK inhibitor” (Incyte Corporation, priority 2010, dated 2026):
Counter-ions that a name gives are not always drawn.

Test: Solubility studies (Example 4)
Format: physicochemical
Protocol: In order to determine the solubility of (R)-3-(4-(7H-pyrrolo[2,3-d]pyrimidin-4-yl)-1H-pyrazol-1-yl)-3-cyclopentylpropanenitrile (free base) or its phosphate salt, approximately 5 mL of a potential solvent was added to approximately 50 mg of the API or its salt at room temperature. The mixtures were suspended and rotated on a wheel. If the mixtures became clear solutions, more solid material was added. The suspensions were then suspended over 24 hours. The samples were filtered through 0.2 micron filters. The liquid portions were collected and diluted with 50/50 water methanol/water. The concentrations of the diluted samples were analyzed by HPLC. When the free base or salt was fairly insoluble, the results are approximate only.

N#CC[C@H](C1CCCC1)n1cc(-c2ncnc3[nH]ccc23)cn1 [Phosphate Salt, (R)-3-(4-(7H-pyrrolo[2,3-d]pyrimidin-4-yl)-1H-pyrazol-1-yl)-3-cyclopentylpropanenitrile Phosphoric Acid Salt]
Solubility (Benzyl alcohol): 3000 µg/mL
Solubility (Ethanol): 7300 µg/mL
Solubility (Glycerin): 11000 µg/mL
Solubility (Isopropanol): 600 µg/mL
Solubility (Isosorbide dimethyl ether): 400 µg/mL
Solubility (Olelyl alcohol): 100 µg/mL
Solubility (PEG 200): 23000 µg/mL
Solubility (PEG 300): 14000 µg/mL
Solubility (Propylene glycol): 24000 µg/mL
Solubility (Transcutol): 10000 µg/mL
Solubility (Trolamine): 51000 µg/mL
Solubility (Water/PEG 200 (50/50)): 23000 µg/mL
Solubility (Water/glycerin/trolamine (40/40/20)): 18000 µg/mL
Solubility (Water/glyercin (50/50)): 21000 µg/mL
Solubility (Water, room temperature): 2700 µg/mL
Solubility (pH 4, citric buffer, 0.1M): 1500 µg/mL
Solubility (pH 6, citric buffer, 0.1M): 200 µg/mL
